Calls of active or inactive are those of the source. The calls are words filed in the database; no cut-off is given here.
Columns and labels:
[1] = target: T1, von Hippel-Lindau disease tumor suppressor/Epidermal growth factor receptor (Homo sapiens, UniProt P00533+P40337); assay: Protac activity at VHL/EGFR in human A431 cells assessed as EGFR degradation by Western blot analysis; type: cell-based; conditions: a-431
[2] = target: von Hippel-Lindau disease tumor suppressor/Epidermal growth factor receptor (Homo sapiens, UniProt P00533+P40337, T790M/L858R); assay: (§1) Protac activity at VHL/EGFR L858R/T790M mutant in human NCI-H1975 cells assessed as EGFR degradation by Western blot analysis; type: cell-based
[3] = tested on: von Hippel-Lindau disease tumor suppressor/Epidermal growth factor receptor (Homo sapiens), P00533+P40337 [L858R,T790M]; assay: as §1; type: cell-based
[4] = target: T1, von Hippel-Lindau disease tumor suppressor/Epidermal growth factor receptor; assay: Protac activity at VHL/EGFR in human A431 cells assessed as EGFR degradation up to 10000 nM measured after 16 hrs by Western blot analysis; type: cell-based; conditions: A-431, dose nM <=10000, time 16.0 hrs
[5] = tested on: von Hippel-Lindau disease tumor suppressor/Epidermal growth factor receptor (Homo sapiens), P00533+P40337 [L858R,T790M]; assay: Protac activity at VHL/EGFR L858R/T790M mutant in human NCI-H1975 cells assessed as EGFR degradation measured after 16 hrs by Western blot analysis; type: cell-based
[6] = tested on: von Hippel-Lindau disease tumor suppressor/Epidermal growth factor receptor (Homo sapiens), P00533+P40337 [L858R,T790M]; assay: Protac activity at VHL/EGFR L858R/T790M mutant in human NCI-H1975 cells assessed as induction of EGFR degradation at 10 to 100 nM measured after 12 hrs in presence of proteasome inhibitor MG132 by Western blot analysis; type: cell-based; conditions: dose 10-100 nM
[7] = tested on: von Hippel-Lindau disease tumor suppressor/Epidermal growth factor receptor (Homo sapiens), P00533+P40337 [L858R,T790M]; assay: Protac activity at VHL/EGFR L858R/T790M mutant in human NCI-H1975 cells assessed as induction of EGFR degradation at 200 nM measured after 12 hrs by Western blot analysis relative to control; type: cell-based
[8] = tested on: von Hippel-Lindau disease tumor suppressor/Epidermal growth factor receptor (Homo sapiens), P00533+P40337 [L858R,T790M]; assay: Protac activity at VHL/EGFR L858R/T790M mutant in human NCI-H1975 cells assessed as reduction in AKT phosphorylation measured after 16 hrs by Western blot analysis; type: cell-based
[9] = tested on: von Hippel-Lindau disease tumor suppressor/Epidermal growth factor receptor (Homo sapiens), P00533+P40337 [L858R,T790M]; assay: Protac activity at VHL/EGFR L858R/T790M mutant in human NCI-H1975 cells assessed as induction of EGFR degradation at 100 nM in presence of EGFR L858R/T790M mutant ligand XTF-262 by Western blot analysis; type: cell-based
[10] = tested on: von Hippel-Lindau disease tumor suppressor/Epidermal growth factor receptor (Homo sapiens), P00533+P40337 [L858R,T790M]; assay: Protac activity at VHL/EGFR L858R/T790M mutant in human NCI-H1975 cells assessed as induction of EGFR degradation at 200 nM measured after 6 hrs by Western blot analysis relative to control; type: cell-based
[11] = target: T1, von Hippel-Lindau disease tumor suppressor/Epidermal growth factor receptor; assay: Protac activity at VHL/EGFR in human A431 cells assessed as reduction in AKT phosphorylation up to 10000 nM measured after 16 hrs by Western blot analysis; type: cell-based; conditions: A-431, dose nM <=10000, time 16.0 hrs
[12] = tested on: von Hippel-Lindau disease tumor suppressor/Epidermal growth factor receptor (Homo sapiens), P00533+P40337 [L858R,T790M]; assay: Protac activity at VHL/EGFR L858R/T790M mutant in human NCI-H1975 cells assessed as reduction in ERK phosphorylation at >2000 nM measured after 16 hrs by Western blot analysis; type: cell-based; conditions: dose nM >2000, time 16.0 hrs
[13] = tested on: von Hippel-Lindau disease tumor suppressor/Epidermal growth factor receptor (Homo sapiens), P00533+P40337 [L858R,T790M]; assay: Protac activity at VHL/EGFR L858R/T790M mutant in human NCI-H1975 cells assessed as EGFR degradation at >2000 nM measured after 16 hrs by Western blot analysis; type: cell-based; conditions: dose nM >2000, time 16.0 hrs
[14] = target: Epidermal growth factor receptor (Homo sapiens, UniProt P00533); assay: Inhibition of wild-type EGFR (unknown origin) using Poly (Glu, Tyr) 4:1 as substrate measured after 1 hr by ELISA
NCI-H1975 = assay: Antiproliferative activity against human NCI-H1975 cells measured after 72 hrs by CCK8 assay; type: functional, cell-based; conditions: NCI-H1975, 72 h
[15] = tested on: von Hippel-Lindau disease tumor suppressor/Epidermal growth factor receptor (Homo sapiens), P00533+P40337 [L858R,T790M]; assay: Protac activity at VHL/EGFR L858R/T790M mutant in human NCI-H1975 cells assessed as induction of EGFR degradation at 10 to 100 nM measured after 1 hr in presence of protein synthesis inhibitor cycloheximide by Western blot analysis; type: cell-based; conditions: dose 10-100 nM
[16] = tested on: von Hippel-Lindau disease tumor suppressor/Epidermal growth factor receptor (Homo sapiens), P00533+P40337 [L858R,T790M]; assay: Protac activity at VHL/EGFR L858R/T790M mutant in human NCI-H1975 cells assessed as reduction in ERK phosphorylation measured after 16 hrs by Western blot analysis; type: cell-based
[17] = target: T1, von Hippel-Lindau disease tumor suppressor/Epidermal growth factor receptor; assay: Protac activity at VHL/EGFR in human A431 cells assessed as reduction in ERK phosphorylation up to 10000 nM measured after 16 hrs by Western blot analysis; type: cell-based; conditions: A-431, dose nM <=10000, time 16.0 hrs
[18] = tested on: von Hippel-Lindau disease tumor suppressor/Epidermal growth factor receptor (Homo sapiens), P00533+P40337 [L858R,T790M]; assay: Protac activity at VHL/EGFR L858R/T790M mutant in human NCI-H1975 cells assessed as reduction in EGFR autophosphorylation measured after 16 hrs by Western blot analysis; type: cell-based
[19] = Effect on AKT level in human NCI-H1975 cells up to 10000 nM treated 8 hrs post serum starvation measured after 16 hrs by Western blot analysis; type: ADME, cell-based; conditions: nci-h1975, 16 h
[20] = Effect on ERK level in human NCI-H1975 cells up to 10000 nM treated 8 hrs post serum starvation measured after 16 hrs by Western blot analysis; type: ADME, cell-based; conditions: nci-h1975, 16 h
[21] = target: Epidermal growth factor receptor (Homo sapiens, UniProt P00533, L858R/T790M); assay: Inhibition of EGFR L858R/T790M (unknown origin) using Poly (Glu, Tyr) 4:1 as substrate measured after 1 hr by ELISA
[22] = tested on: von Hippel-Lindau disease tumor suppressor/Epidermal growth factor receptor (Homo sapiens), P00533+P40337 [L858R,T790M]; assay: Protac activity at VHL/EGFR L858R/T790M mutant in human NCI-H1975 cells assessed as induction of EGFR degradation at 200 nM measured after 24 hrs by Western blot analysis; type: cell-based
[23] = tested on: von Hippel-Lindau disease tumor suppressor/Epidermal growth factor receptor (Homo sapiens), P00533+P40337 [L858R,T790M]; assay: Protac activity at VHL/EGFR L858R/T790M mutant in human NCI-H1975 cells assessed as induction of EGFR degradation at 100 nM in presence of EGFR L858R/T790M mutant ligand osimertinib by Western blot analysis; type: cell-based
[24] = tested on: von Hippel-Lindau disease tumor suppressor/Epidermal growth factor receptor (Homo sapiens), P00533+P40337 [L858R,T790M]; assay: Protac activity at VHL/EGFR L858R/T790M mutant in human NCI-H1975 cells assessed as induction of EGFR degradation at 100 nM in presence of VHL ligand (S,R,S)-AHPC osimertinib by Western blot analysis; type: cell-based
[25] = tested on: von Hippel-Lindau disease tumor suppressor/Epidermal growth factor receptor (Homo sapiens), P00533+P40337 [L858R,T790M]; assay: Protac activity at VHL/EGFR L858R/T790M mutant in human NCI-H1975 cells assessed as reduction in AKT phosphorylation at >2000 nM measured after 16 hrs by Western blot analysis; type: cell-based; conditions: dose nM >2000, time 16.0 hrs
[26] = target: E3 ubiquitin-protein ligase Mdm2/Epidermal growth factor receptor (Homo sapiens, UniProt Q00987+P00533); assay: Protac activity at MDM2/EGFR in human A431 cells assessed as EGFR degradation by Western blot analysis; type: cell-based; conditions: a-431
[27] = target: E3 ubiquitin-protein ligase Mdm2/Epidermal growth factor receptor (Homo sapiens, UniProt Q00987+P00533, T790M/L858M); assay: Protac activity at MDM2/EGFR L858R/T790M mutant in human NCI-H1975 cells assessed as EGFR degradation by Western blot analysis; type: cell-based

`C=CC(=O)Nc1cccc(-n2c(=O)cc(C)c3cnc(Nc4ccc(N5CCN(C(=O)CCCCCCCCC(=O)N[C@H](C(=O)N6C[C@H](O)C[C@H]6C(=O)NCc6ccc(-c7scnc7C)cc6)C(C)(C)C)CC5)cc4OC)nc32)c1` gave a DC50 [1] greater than 2 µM and a DC50 [2] of 0.069 µM.

Work on `C=CC(=O)Nc1cccc(-n2c(=O)cc(C)c3cnc(Nc4ccc(N5CCN(C(=O)CCCCC(=O)N[C@H](C(=O)N6C[C@H](O)C[C@H]6C(=O)NCc6ccc(-c7scnc7C)cc6)C(C)(C)C)CC5)cc4OC)nc32)c1` yielded a DC50 [1] greater than 2 µM.

For `C=CC(=O)Nc1cccc(-n2c(=O)cc(C)c3cnc(Nc4ccc(N5CCN(C(=O)CCCCCCCCCCC(=O)N[C@H](C(=O)N6C[C@H](O)C[C@H]6C(=O)NCc6ccc(-c7scnc7C)cc6)C(C)(C)C)CC5)cc4OC)nc32)c1`, the DC50 [1] was greater than 2 µM and the Activity [3] was “Dose-dependent effect”.

For `C=CC(=O)Nc1cccc(-n2c(=O)cc(C)c3cnc(Nc4ccc(N5CCN(CCCCCC(=O)N[C@H](C(=O)N6C[C@H](O)C[C@H]6C(=O)NCc6ccc(-c7scnc7C)cc6)C(C)(C)C)CC5)cc4OC)nc32)c1`, the DC50 [1] was greater than 2 µM, the Activity [4] was “inactive” and the Activity [5] was “Dose-dependent effect”. The Activity [6] was “inactive”, the Activity [7] was 89% and the Activity [8] was “Dose-dependent effect”. For the same molecule, the Activity [9] was “inactive”, the Activity [10] was 63% and the DC50 [2] was 0.0059 µM. The Activity [11] was “inactive”, the Activity [12] was “inactive” and the Activity [13] was “Active”. The IC50 [14] was greater than 1 µM, the IC50 (NCI-H1975) was 0.506 µM and the Activity [15] was “Active”. For the same molecule, the Activity [16] was “Dose-dependent effect”, the Activity [17] was “inactive” and the Activity [18] was “Dose-dependent effect”. For the same molecule, the Activity [19] was “Non-Toxic”, the Activity [20] was “Non-Toxic” and the IC50 [21] was 0.0193 µM. The Activity [22] was “inactive”, the Activity [23] was “inactive” and the Activity [24] was “inactive”. The Activity [25] was “inactive”.

In the case of `C=CC(=O)Nc1cccc(-n2c(=O)cc(C)c3cnc(Nc4ccc(N5CCN(C(=O)CCCCCCC(=O)N[C@H](C(=O)N6C[C@H](O)C[C@H]6C(=O)NCc6ccc(-c7scnc7C)cc6)C(C)(C)C)CC5)cc4OC)nc32)c1`, the DC50 [1] is reported as greater than 2 µM and the DC50 [2] is reported as 0.235 µM.

`C=CC(=O)Nc1cccc(-n2c(=O)cc(C)c3cnc(Nc4ccc(N5CCN(CCCC(=O)N[C@H](C(=O)N6C[C@H](O)C[C@H]6C(=O)NCc6ccc(-c7scnc7C)cc6)C(C)(C)C)CC5)cc4OC)nc32)c1` showed a DC50 [1] greater than 2 µM.

`C=CC(=O)Nc1cccc(-n2c(=O)cc(C)c3cnc(Nc4ccc(N5CCN(CCCCCCCCCC(=O)N[C@H](C(=O)N6C[C@H](O)C[C@H]6C(=O)NCc6ccc(-c7scnc7C)cc6)C(C)(C)C)CC5)cc4OC)nc32)c1` gave a DC50 [1] greater than 2 µM and a DC50 [2] of 0.132 µM.

Molecule `C=CC(=O)Nc1cccc(-n2c(=O)cc(C)c3cnc(Nc4ccc(N5CCN(C(=O)CCCCCCCNC(=O)c6ccc(NC(=O)[C@@H]7N[C@@H](CC(C)(C)C)[C@](C#N)(c8ccc(Cl)cc8F)[C@H]7c7cccc(Cl)c7F)c(OC)c6)CC5)cc4OC)nc32)c1` has a DC50 [26] greater than 2 µM and a DC50 [27] of 0.253 µM.

Molecule `C=CC(=O)Nc1cccc(-n2c(=O)cc(C)c3cnc(Nc4ccc(N5CCN(CCCCCCCCCCCCNC(=O)c6ccc(NC(=O)[C@@H]7N[C@@H](CC(C)(C)C)[C@](C#N)(c8ccc(Cl)cc8F)[C@H]7c7cccc(Cl)c7F)c(OC)c6)CC5)cc4OC)nc32)c1` has a DC50 [26] greater than 2 µM.

From ChEMBL document CHEMBL4680227, “Design and synthesis of selective degraders of EGFR mutant” (Eur J Med Chem, 2020)
